{"source": "patent US20120258980A1", "about": "“Antibacterial Agent for Drug-Resistant Bacteria, Method for Screening for Same, and Use of Same” (priority 2009, published 2012)", "key": {"[1]": {"tested_on": "VISA clinical isolates of MRSA (VI-MRSA) and of MSSA (VI-MSSA)", "test": "microbe, parasite or virus in culture", "format": "cell-based, Staphylococcus aureus", "settings": "Staphylococcus aureus", "protocol": "(§1) Each of the bacterial strains listed in Table 1-1 was shake-cultured at 37° C. overnight in 4 mL of a medium (Tryptical Soy Broth: TSB, product of Becton Dickinson and Company). FDA209P was used as a control.\n(§2) After completion of culturing, the resultant culture was suspended in a cation-adjusted Mueller Hinton Broth (CAMHB, product of Becton Dickinson and Company). Then, the obtained bacterial culture was adjusted in absorbance with the CAMHB so that the absorbance at 578 nm of the bacterial culture was adjusted to 0.3 measured by an absorption spectrometer. In addition, the resultant bacterial culture was 500-fold diluted with the CAMHB.\n(§3) Each of the 500-fold diluted, pre-cultured bacterial cultures was added at 50 μL/well to the CAMHB containing the quinolones and the nybomycins at various concentrations (50 μL/well), followed by statically culturing at 37° C. overnight.\n(§4) After completion of culturing, the growth of the bacteria was visually determined based on turbidity to measure MIC in each bacterial strain.\nHere, the glycopeptides used were VCM and TEIC. The β-lactam used was OXA."}, "Enterococcus faecalis": {"tested_on": "Enterococcus faecalis", "test": "MIC measurement, Test Example 6 (enterococcus)", "format": "cell-based", "settings": "Enterococcus faecalis, read-out: MIC", "protocol": "as §1, §2, §3, §4\nQuinolones and nybomycins were evaluated for antibacterial activity against Enterococcus faecalis shown in Table 6, wherein the other strains than NCTC12201 and NCTC12203 were subdivided from Shionogi & Co., Ltd (note that these strains are available also from the Department of Bacteriology, Juntendo University). The NCTC strains are both vancomycin-resistant E. faecalis and available from the National Collection of Type Cultures (NCTC)."}}, "note": "Read-outs that look alike come from different tables or passages of the source.", "data": [{"smiles": "Cc1cc(=O)n(C)c2c3c4c(cc12)c(C)cc(=O)n4CO3", "note": "[DNM, deoxynybomycin]", "values": [{"measurement": "MIC", "setting": "[1]; HIP08926, VI-MRSA, America", "result": 0.5, "unit": "µg/mL"}, {"measurement": "MIC", "setting": "[1]; HIP09143, VI-MRSA, America", "result": 0.5, "unit": "µg/mL"}, {"measurement": "MIC", "setting": "[1]; HIP09313, VI-MRSA, America", "result": 0.125, "unit": "µg/mL"}, {"measurement": "MIC", "setting": "[1]; HIP09433, VI-MRSA, America", "result": 0.5, "unit": "µg/mL"}, {"measurement": "MIC", "setting": "[1]; HIP09662, VI-MRSA, America", "result": 0.25, "unit": "µg/mL"}, {"measurement": "MIC", "setting": "[1]; HIP09735, VI-MRSA, America", "result": 0.5, "unit": "µg/mL"}, {"measurement": "MIC", "setting": "[1]; HIP09737, VI-MSSA, America", "result": 1, "unit": "µg/mL"}, {"measurement": "MIC", "setting": "[1]; HIP09740, VI-MRSA, America", "result": 0.25, "unit": "µg/mL"}, {"measurement": "MIC", "setting": "[1]; HIP10267, VI-MRSA, America", "result": 0.25, "unit": "µg/mL"}, {"measurement": "MIC", "setting": "[1]; HIP10540, VI-MRSA, America", "result": "≤ 0.063", "unit": "µg/mL"}, {"measurement": "MIC", "setting": "[1]; HIP12864, VI-MRSA, America", "result": 0.125, "unit": "µg/mL"}, {"measurement": "MIC", "setting": "[1]; HIP13036, VI-MRSA, America", "result": 0.25, "unit": "µg/mL"}, {"measurement": "MIC", "setting": "[1]; HIP13057, VI-MRSA, America", "result": 0.125, "unit": "µg/mL"}, {"measurement": "MIC", "setting": "[1]; IL (HIP7737), VI-MRSA, America", "result": 1, "unit": "µg/mL"}, {"measurement": "MIC", "setting": "[1]; JCSC7193, VI-MRSA, Thailand", "result": 0.33, "unit": "µg/mL"}, {"measurement": "MIC", "setting": "[1]; JCSC7195, VI-MRSA, Thailand", "result": 0.16, "unit": "µg/mL"}, {"measurement": "MIC", "setting": "[1]; JCSC7203, VI-MRSA, Thailand", "result": 0.16, "unit": "µg/mL"}, {"measurement": "MIC", "setting": "[1]; LIM2, VI-MRSA, France", "result": 0.25, "unit": "µg/mL"}, {"measurement": "MIC", "setting": "[1]; LY-1999-01, VI-MSSA, Oman", "result": "≤ 0.063", "unit": "µg/mL"}, {"measurement": "MIC", "setting": "[1]; LY-1999-03, VI-MRSA, Oman", "result": "≤ 0.063", "unit": "µg/mL"}, {"measurement": "MIC", "setting": "[1]; MI (HIP5827), VI-MRSA, America", "result": "≤ 0.063", "unit": "µg/mL"}, {"measurement": "MIC", "setting": "[1]; MRSA / MSSA / NRS 76 / VISA, NRS76, VI-MSSA, America", "result": "≤ 0.063", "unit": "µg/mL"}, {"measurement": "MIC", "setting": "[1]; MRSA / MSSA / NRS 79 / VISA, NRS79, VI-MRSA, America", "result": 1, "unit": "µg/mL"}, {"measurement": "MIC", "setting": "[1]; MRSA / MSSA / NRS 118 / VISA, NRS118, VI-MRSA, America", "result": 2, "unit": "µg/mL"}, {"measurement": "MIC", "setting": "[1]; MRSA / MSSA / NRS 126 / VISA, NRS126, VI-MRSA, America", "result": 0.5, "unit": "µg/mL"}, {"measurement": "MIC", "setting": "[1]; Mu3, VI-MRSA, Japan", "result": 0.5, "unit": "µg/mL"}, {"measurement": "MIC", "setting": "[1]; Mu50, VI-MRSA, Japan", "result": 0.25, "unit": "µg/mL"}, {"measurement": "MIC", "setting": "[1]; NJ (HIP5836), VI-MRSA, America", "result": 0.25, "unit": "µg/mL"}, {"measurement": "MIC", "setting": "[1]; P1V44, VI-MSSA, Belgium", "result": 0.5, "unit": "µg/mL"}, {"measurement": "MIC", "setting": "[1]; PC, VI-MRSA, America", "result": 0.125, "unit": "µg/mL"}, {"measurement": "MIC", "setting": "[1]; SA MER-S6, VI-MSSA, France", "result": "> 64", "unit": "µg/mL"}, {"measurement": "MIC", "setting": "[1]; SA MER-S12, VI-MSSA, France", "result": "> 64", "unit": "µg/mL"}, {"measurement": "MIC", "setting": "[1]; SA MER-S20, VI-MSSA, France", "result": "> 64", "unit": "µg/mL"}, {"measurement": "MIC", "setting": "Enterococcus faecalis; E. faecalis 36-15672, quinolone-susceptible enterococci", "result": "> 64", "unit": "µg/mL"}, {"measurement": "MIC", "setting": "Enterococcus faecalis; E. faecalis 36-15673, quinolone-susceptible enterococci", "result": "> 64", "unit": "µg/mL"}, {"measurement": "MIC", "setting": "Enterococcus faecalis; E. faecalis 36-15678, quinolone-susceptible enterococci", "result": "> 64", "unit": "µg/mL"}, {"measurement": "MIC", "setting": "Enterococcus faecalis; E. faecalis 36-15686, quinolone-resistant enterococci", "result": 2, "unit": "µg/mL"}, {"measurement": "MIC", "setting": "Enterococcus faecalis; E. faecalis 36-15688, quinolone-susceptible enterococci", "result": "> 64", "unit": "µg/mL"}, {"measurement": "MIC", "setting": "Enterococcus faecalis; E. faecalis 36-15694, quinolone-resistant enterococci", "result": 2, "unit": "µg/mL"}, {"measurement": "MIC", "setting": "Enterococcus faecalis; E. faecalis 36-15696, quinolone-susceptible enterococci", "result": "> 64", "unit": "µg/mL"}, {"measurement": "MIC", "setting": "Enterococcus faecalis; E. faecalis 36-15703, quinolone-resistant enterococci", "result": 0.25, "unit": "µg/mL"}, {"measurement": "MIC", "setting": "Enterococcus faecalis; E. faecalis 36-15716, quinolone-resistant enterococci", "result": 4, "unit": "µg/mL"}, {"measurement": "MIC", "setting": "Enterococcus faecalis; E. faecalis 36-15718, quinolone-susceptible enterococci", "result": 32, "unit": "µg/mL"}, {"measurement": "MIC", "setting": "Enterococcus faecalis; E. faecalis 36-15720, quinolone-susceptible enterococci", "result": "> 64", "unit": "µg/mL"}, {"measurement": "MIC", "setting": "Enterococcus faecalis; E. faecalis 36-15722, quinolone-resistant enterococci", "result": 4, "unit": "µg/mL"}, {"measurement": "MIC", "setting": "Enterococcus faecalis; E. faecalis 36-15726, quinolone-resistant enterococci", "result": 2, "unit": "µg/mL"}, {"measurement": "MIC", "setting": "Enterococcus faecalis; E. faecalis 36-15730, quinolone-susceptible enterococci", "result": 64, "unit": "µg/mL"}, {"measurement": "MIC", "setting": "Enterococcus faecalis; E. faecalis 36-15736, quinolone-susceptible enterococci", "result": "> 64", "unit": "µg/mL"}, {"measurement": "MIC", "setting": "Enterococcus faecalis; E. faecalis 36-15741, quinolone-susceptible enterococci", "result": "> 64", "unit": "µg/mL"}, {"measurement": "MIC", "setting": "Enterococcus faecalis; NCTC 12201 / VRE, E. faecalis NCTC12201, vancomycin-resistant (VRE), quinolone-susceptible enterococci", "result": 16, "unit": "µg/mL"}, {"measurement": "MIC", "setting": "Enterococcus faecalis; NCTC 12203 / VRE, E. faecalis NCTC12203, vancomycin-resistant (VRE), quinolone-susceptible enterococci", "result": "> 64", "unit": "µg/mL"}]}]}
